Patent US20220062279A1, “TREATMENT OF MOVEMENT DISORDERS” (Contera Pharma A/S, priority 2018, published 2022)

Assays:
locomotor activity = assay: Open field test; conditions: buspirone 0.1-30 mg/kg i.p., pentobarbital 15 mg/kg i.p.; 60 minutes observation period; compared to vehicle
[1] = system: rats' motor performance and coordination; assay: Rotarod test; conditions: buspirone 0.1-30 mg/kg i.p., pentobarbital 15 mg/kg i.p., 5 or 30 min before test; compared to vehicle
Parkinson's disease = conditions: cited from earlier work
[2] = system: unilaterally 6-OHDA-lesioned rats; assay: L-DOPA induced AIMs test in the 6-OHDA rat model; format: in vivo; conditions: previously shown by the applicant
LID = conditions: cited from earlier work

| SMILES | Open field performance (locomotor activity) (locomotor activity) | Rotarod performance (time spent on the accelerating rod) [1] | disability ratings (Parkinson's disease; 100 mg/day) | dyskinesia (Parkinson's disease; 100 mg/day) | effects on Parkinson's disease or dyskinesia (Parkinson's disease; 10-60 mg/day) | L-DOPA-induced involuntary movements [2] | effects compared to placebo (LID; phase 2b and 3 studies) | LID (LID; pre-clinical and clinical studies) |
| --- | --- | --- | --- | --- | --- | --- | --- | --- |
| CCCC(C)C1(CC)C(=O)NC(=O)NC1=O (stereo not shown) [Pentobarbital] | significantly reduced motor performance | significantly reduces time spent on the rotarod | – | – | – | – | – | – |
| O=C1CC2(CCCC2)CC(=O)N1CCCCN1CCN(c2ncccn2)CC1 [buspirone, 8-[4-(4-pyrimidin-2-ylpiperazin-1-yl)butyl]-8-azaspiro[4.5]decane-7,9-dione] | dose dependently is able to affect performance in the open field test | affect performance in the rotarod model in a dose dependent manner | significant worsening of disability ratings | reduced dyskinesia | did not have any effects on Parkinson's disease or dyskinesia | dose dependently reduce L-DOPA-induced involuntary movements | – | – |
| Fc1ccc(-c2cncc(CNC[C@H]3CCc4ccccc4O3)c2)cc1 [sarizotan, 1-[(2R)-3,4-dihydro-2H-chromen-2-yl]-N-([5-(4-fluorophenyl)pyridin-3-yl]methyl)methanamine] | – | – | – | – | – | – | no significant effects | reduced LID |
